Measurements reported in paper PMC6271887, “Antiparasitic Activity of Natural and Semi-Synthetic Tirucallane Triterpenoids from Schinus terebinthifolius (Anacardiaceae): Structure/Activity Relationships” (Molecules, 2014).
In brackets after ≈: the same amount, converted by molar mass. Like-named read-outs stand apart in the source and are kept apart here.

Experiments:
[1] = test system: T. cruzi trypomastigotes (Y strain); experiment: Activity against Trypanosoma cruzi trypomastigotes (MTT); type: cell-based; settings: for T. cruzi (Trypomastigotes) Experimental: class, without activity at 100 µg/mL = inactive; for SI TRY: selectivity index trypomastigotes: CC50 mammalian cells/IC50 trypomastigotes; for IC50: Trypanosoma cruzi, 37 °C, 100 to 0.78 μg/mL, NA: not active, read-out: IC50 CI95% T. cruzi Trypomastigotes
Procedure: (§1) Isolated promastigotes of L. (L.) infantum (MHOM/BR/1972/LD) were maintained in M-199 medium supplemented with 10% fetal bovine serum (FBS) and 0.25% hemin at 24 °C. L. infantum was maintained in golden hamsters up to 60–70 days post-infection. Amastigotes were harvested from spleens of infected hamsters by differential centrifugation. T. cruzi trypomastigotes (Y strain) were maintained in LLC-MK2 (ATCC CCL 7) cells using RPMI-1640 medium supplemented with 2% FBS at 37 °C 5% CO2-humidified incubator [21].
Compounds 1–3, 1a–c, 2a–d, 3a, and 3b were dissolved in DMSO and diluted in RPMI-1640 medium to determine the 50% inhibitory concentration (IC50) as described above for the antileishmanial assay. Free trypomastigotes obtained from LLC-MK2 cultures were counted in a Neubauer hemocytometer and seeded at 1 × 10^6/well in 96-well microplates. The tested compounds were incubated in a range concentration of 100 to 0.78 μg/mL for 24 h at 37 °C in a 5% CO2 humidified incubator, using benznidazole as standard drug. The viability of the trypomastigotes was verified by the MTT assay as described above.

[2] = test system: L. infantum intracellular amastigotes; experiment: Activity against L. infantum intracellular amastigotes in peritoneal macrophages (Giemsa, microscopy); type: cell-based, Leishmania (L.) infantum; settings: for SI AMA: selectivity index amastigotes: CC50 mammalian cells/IC50 Leishmania amastigotes; for IC50: Leishmania infantum, Peritoneal macrophage, intracellular, peritoneal macrophages, 120 h, 100 to 0.78 μg/mL, NA: not active, read-out: IC50 CI95% L. infantum Amastigotes; for L. infantum (Amastigotes) Experimental: class, without activity at 100 µg/mL = inactive
Procedure: as §1
Peritoneal macrophages were collected from the peritoneal cavity of female BALB/c mice by washing with RPMI-1640 without phenol red, supplemented with 10% FBS. NCTC (clone 929) cells were maintained in RPMI-1640 (without phenol red and supplemented with 10% FBS) at 37 °C in a humidified atmosphere containing 5% CO2 [31].
Peritoneal macrophages were obtained as described previously and L. infantum amastigotes were obtained from spleens of infected hamsters by differential centrifugation. Peritoneal macrophages were seeded at 1 × 10^5 cells per well in Nunc™ 16-well slide chambers (Aldrich, St. Louis, MO, USA) for 24 h at 37 °C in a 5% CO2-humidified incubator. Amastigotes were added to macrophages at 10:1 ratio (amastigotes:macrophage) and incubated for 24 h. Non-internalized parasites were removed by washing twice with medium and the cells were then incubated with compounds in a range concentration of 100 to 0.78 μg/mL for 120 h at 37 °C in 5% CO2, using miltefosine as standard drug. At the end of the assay, the cells were fixed in methanol, stained with Giemsa and observed under a light microscope to determine the number of infected macrophages out of 400 cells.

[3] = Cytotoxicity against mammalian cells (MTT); type: cell-based; settings: mouse
Procedure: (§2) Peritoneal macrophages were collected from the peritoneal cavity of female BALB/c mice by washing with RPMI-1640 without phenol red, supplemented with 10% FBS. NCTC (clone 929) cells were maintained in RPMI-1640 (without phenol red and supplemented with 10% FBS) at 37 °C in a humidified atmosphere containing 5% CO2 [31]. The 50% cytotoxic concentration (CC50) was determined in NCTC clone 929 cells. NCTC cells were seeded at 6 × 10^4 cells/well in 96-well microplates at 37 °C in a 5% CO2. The mammalian cells were incubated with tested compounds to the highest concentration of 200 μg/mL for 48 h at 37 °C, using miltefosine as standard drug. The viability of the cells was determined by MTT assay at 570 nm. The selectivity index (SI) was determined considering the following equation: CC50 NCTC cells/IC50 parasites.

NCTC clone 929 cells = experiment: Cytotoxicity against mammalian cells (MTT); type: cell-based
Procedure: as §2

[4] = test system: T. cruzi trypomastigotes (Y strain); design: method as in PMID 24340110; settings: CI95% not given; cited from earlier work
[5] = test system: L. infantum promastigotes; design: method as in PMID 24374794; settings: CI95% not given; cited from earlier work
[6] = test system: L. infantum intracellular amastigotes; design: method as in PMID 24374794; settings: CI95% not given; cited from earlier work
[7] = test system: extracellular forms of the parasite; design: method as in PMID 10603400; settings: cited from earlier work
[8] = test system: L. infantum promastigotes; experiment: Activity against L. infantum promastigotes (MTT, light microscopy); type: cell-based; settings: Leishmania infantum; 48 h, 24 °C, 100 to 0.78 μg/mL; NA: not active; read-out: IC50 CI95% L. infantum Promastigotes
Procedure: as §1
To determine the 50% inhibitory concentration (IC50) against L. infantum promastigotes, compounds 1–3, 1a–c, 2a–d, 3a, and 3b were previously dissolved in dimethyl sulphoxide (DMSO) and diluted with M-199 medium in 96-well microplates. Promastigotes were counted in a Neubauer hemocytometer and seeded at 1 × 10^6/well with a final volume of 150 μL. The tested compounds were incubated in a range concentration of 100 to 0.78 μg/mL for 48 h at 24 °C. The viability of promastigotes was verified by motility and morphology using light microscopy and by the colorimetric MTT assay. Briefly, 3-[4,5-dimethylthiazol-2-yl]-2,5-diphenyltetrazolium bromide (MTT, 5 mg/mL) was dissolved in phosphate-buffered saline (PBS), sterilized through 0.22 µm membranes and added, 20 µL/well, for 4 h at 24 °C. […]

[9] = NCTC clone 929 cells, NCTC clone 929, 48 h, highest concentration 200 μg/mL, read-out: CC50 CI95% NCTC

Structure (SMILES): C/C(=C/CCC(C)[C@@H]1CC[C@]2(C)C3=CCC4C(C)(C)C(=O)CC[C@]4(C)C3CC[C@@]12C)C(=O)O (stereo partly shown) [Compound 1, 3-Oxotirucalla-7,24Z-dien-27-oic acid]
- IC50 against T. cruzi trypomastigotes ([1]; 24 h): lack of activity
- T. cruzi (Trypomastigotes) Experimental [1]: I
- SI AMA: selectivity index amastigotes [2]: >3
- IC50 [2]: 66.5 µg/mL (≈ 146 µM)
- CC50 at 48 h [3, 9]: > 200 µg/mL
- NCTC Experimental (NCTC clone 929 cells; cytotoxicity class): I

Structure (SMILES): C/C(=C\CCC(C)[C@@H]1CC[C@]2(C)C3=CCC4C(C)(C)C(=O)CC[C@]4(C)C3CC[C@@]12C)C(=O)O (stereo partly shown) [Compound 2, 3-Oxotirucalla-7,24E-dien-27-oic acid]
- SI TRY: selectivity index trypomastigotes [1]: 6.1
- IC50 ([1]; 24 h): 15.8 µg/mL (≈ 34.6 µM)
- SI AMA: selectivity index amastigotes [2]: 1.5
- IC50 [2]: 64.9 µg/mL (≈ 143 µM)
- CC50 at 48 h [3, 9]: 96 µg/mL (≈ 211 µM)
- CC50 CI95% NCTC (NCTC clone 929 cells; NCTC clone 929, 48 h, highest concentration 200 μg/mL): 96.48 (77.38–120.30) μg/mL
- NCTC Experimental (NCTC clone 929 cells; cytotoxicity class): I

Structure (SMILES): O=C(Cn1ccnc1[N+](=O)[O-])NCc1ccccc1 [benznidazole]
- IC50 T. cruzi Trypomastigotes (standard drug) [4]: 115 µg/mL (≈ 441 µM)

Structure (SMILES): CC(=O)OC1CC[C@]2(C)C3CC[C@@]4(C)[C@H](C(C)CCCC(C)C(=O)O)CC[C@]4(C)C3=CCC2C1(C)C (stereo partly shown) [Compound 2c, 3ξ-Acetoxytirucall-7-en-27-oic acid]
- SI TRY: selectivity index trypomastigotes [1]: 1.2
- IC50 ([1]; 24 h): 49.2 µg/mL (≈ 98.2 µM)
- L. infantum (Amastigotes) Experimental [2]: I
- CC50 at 48 h ([3]; CC50 CI95% NCTC): 57.8 µg/mL (≈ 115 µM)
- NCTC Experimental (NCTC clone 929 cells): I

Structure (SMILES): C/C(=C/CCC(C)[C@@H]1CC[C@]2(C)C3=CCC4C(C)(C)C(O)CC[C@]4(C)C3CC[C@@]12C)C(=O)O (stereo partly shown) [Compound 1a, 3ξ-Hydroxytirucalla-7,24Z-dien-27-oic acid]
- SI TRY: selectivity index trypomastigotes [1]: 3.4
- IC50 ([1]; 24 h): 20.2 µg/mL (≈ 44.2 µM)
- L. infantum (Amastigotes) Experimental [2]: I
- CC50 at 48 h ([3]; CC50 CI95% NCTC): 69.5 µg/mL (≈ 152 µM)

Structure (SMILES): CC(CCCC(C)[C@@H]1CC[C@]2(C)C3=CCC4C(C)(C)C(=O)CC[C@]4(C)C3CC[C@@]12C)C(=O)O (stereo partly shown) [Compound 1c, 3-Oxotirucall-7-en-27-oic acid]
- T. cruzi (Trypomastigotes) Experimental [1]: I
- L. infantum (Amastigotes) Experimental [2]: I
- CC50 at 48 h ([3]; CC50 CI95% NCTC): > 200 µg/mL
- NCTC Experimental (NCTC clone 929 cells): I

Structure (SMILES): CC(=O)OC1CC[C@]2(C)C3CC[C@@]4(C)[C@H](C(C)CC/C=C(\C)C(=O)O)CC[C@]4(C)C3=CCC2C1(C)C (stereo partly shown) [Compound 2b, 3ξ-Acetoxytirucalla-7,24E-dien-27-oic acid]
- SI TRY: selectivity index trypomastigotes [1]: 1.1
- IC50 ([1]; 24 h): 58.4 µg/mL (≈ 117 µM)
- L. infantum (Amastigotes) Experimental [2]: I
- CC50 at 48 h ([3]; CC50 CI95% NCTC): 69.3 µg/mL (≈ 139 µM)
- NCTC Experimental (NCTC clone 929 cells): I

Structure (SMILES): CCCCCCCCCCCCCCCCOP(=O)([O-])OCC[N+](C)(C)C [miltefosine, reference compound]
- IC50 L. infantum Promastigotes (standard drug) [5]: 6.87 µg/mL (≈ 16.9 µM)
- IC50 L. infantum Amastigotes (standard drug) [6]: 7.25 µg/mL (≈ 17.8 µM)
- SI AMA: selectivity index amastigotes [2]: 7
- CC50 at 48 h [3, 9]: 49.7 µg/mL (≈ 122 µM)

Structure (SMILES): C/C(=C\CCC(C)[C@@H]1CC[C@]2(C)C3=CCC4C(C)(C)C(O)CC[C@]4(C)C3CC[C@@]12C)C(=O)O (stereo partly shown) [Compound 2a, 3ξ-Hydroxytirucalla-7,24E-dien-27-oic acid]
- SI TRY: selectivity index trypomastigotes [1]: 3.2
- IC50 ([1]; 24 h): 29.6 µg/mL (≈ 64.8 µM)
- SI AMA: selectivity index amastigotes [2]: 1.0
- IC50 [2]: 97.6 µg/mL (≈ 214 µM)
- CC50 at 48 h ([3]; CC50 CI95% NCTC): 95.5 µg/mL (≈ 209 µM)
- NCTC Experimental (NCTC clone 929 cells): I

Structure (SMILES): COC(=O)/C(C)=C\CCC(C)[C@@H]1CC[C@]2(C)C3=CCC4C(C)(C)[C@H](O)CC[C@]4(C)C3CC[C@@]12C (stereo partly drawn) [Compound 3a, Methyl 3α-hydroxytirucalla-7,24Z-dien-27-oate]
- L. infantum (Amastigotes) Experimental [2]: I
- CC50 at 48 h ([3]; CC50 CI95% NCTC): > 200 µg/mL
- NCTC Experimental (NCTC clone 929 cells): I

Structure (SMILES): COC(=O)/C(C)=C\CCC(C)[C@@H]1CC[C@]2(C)C3=CCC4C(C)(C)[C@H](OC(C)=O)CC[C@]4(C)C3CC[C@@]12C (stereo partly drawn) [Compound 3b, Methyl 3α-acetoxytirucalla-7,24Z-dien-27-oate]
- L. infantum (Amastigotes) Experimental [2]: I
- CC50 at 48 h ([3]; CC50 CI95% NCTC): > 200 µg/mL
- NCTC Experimental (NCTC clone 929 cells): I

Structure (SMILES): CNC[C@H](O)[C@@H](O)[C@H](O)[C@H](O)CO.[O]=[Sb](=[O])[OH] [glucantime]
- effectiveness against the extracellular forms of the parasite [7]: no effectiveness

Structure (SMILES): C/C(=C/CCC(C)[C@@H]1CC[C@]2(C)C3=CCC4C(C)(C)[C@H](O)CC[C@]4(C)C3CC[C@@]12C)C(=O)O (stereo partly drawn) [Compound 3, 3α-Hydroxytirucalla-7,24Z-dien-27-oic acid]
- IC50 [8]: 57.8 µg/mL (≈ 127 µM)
- SI TRY: selectivity index trypomastigotes [1]: 4.3
- IC50 ([1]; 24 h): 16.3 µg/mL (≈ 35.6 µM)
- SI AMA: selectivity index amastigotes [2]: 2.4
- IC50 [2]: 28.9 µg/mL (≈ 63.4 µM)
- CC50 at 48 h ([3]; CC50 CI95% NCTC): 69 µg/mL (≈ 151 µM)
- CC50 CI95% NCTC (NCTC clone 929 cells; mouse, 48 h): 69.50 (64.01–75.45) μg/mL

Structure (SMILES): COC(=O)/C(C)=C/CCC(C)[C@@H]1CC[C@]2(C)C3=CCC4C(C)(C)C(=O)CC[C@]4(C)C3CC[C@@]12C (stereo partly shown) [Compound 2d, Methyl 3-oxotirucalla-7,24E-dien-27-oate]
- T. cruzi (Trypomastigotes) Experimental [1]: I
- L. infantum (Amastigotes) Experimental [2]: I
- CC50 at 48 h [3, 9]: > 200 µg/mL
- NCTC Experimental (NCTC clone 929 cells; cytotoxicity class): I

Structure (SMILES): CC(CCCC(C)[C@@H]1CC[C@]2(C)C3=CCC4C(C)(C)C(O)CC[C@]4(C)C3CC[C@@]12C)C(=O)O (stereo partly shown) [Compound 1b, 3ξ-Hydroxytirucall-7-en-27-oic acid]
- SI TRY: selectivity index trypomastigotes [1]: 4.3
- IC50 ([1]; 24 h): 17.6 µg/mL (≈ 38.5 µM)
- L. infantum (Amastigotes) Experimental [2]: I
- CC50 at 48 h ([3]; CC50 CI95% NCTC): 76.4 µg/mL (≈ 167 µM)
